Experimental data published in article PMC6474902, “Examination of novel 4-aminoquinoline derivatives designed and synthesized by a hybrid pharmacophore approach to enhance their anticancer activities” (Scientific Reports, 2019).
Read-outs that look alike come from different tables or passages of the source.

What was measured:
[1] = system: MCF7; test: SRB antiproliferative/antigrowth assay; format: cell-based, human; details: for GI50: SRB, 48 h post-treatment, mean of triplicates of at least two experiments, read-out: GI50 MCF7
Procedure: (§1) The antigrowth effects of 4-piperazinylquinoline sulfonyl analogs on human breast tumor cells was initially evaluated using MDA-MB468 (a PTEN defective, EGFR positive breast adenocarcioma), MDA-MB231 (p53 and pRB mutated, triple-negative breast carcinoma), and MCF7 (p53+/−, invasive ductal breast carcinoma) cell lines. In addition, the cytotoxicity of all the compounds was also evaluated with the 184B5 and MCF10A non-cancer immortalized breast epithelial cell lines, to determine if these newly synthesized compounds have differential cytotoxic effects on cancer and non-cancer cells. The panel of three breast cancer cell lines with different genetic back ground and the well-studied two non-cancer immortalized breast cell lines would provide insights into the efficacy and toxicity of the test compounds in the different genetic background and at different stages of tumor development. The dose response of each cell line was established by determining the number of viable cells after 48 h of continuous drug treatment against seven different concentrations (100 µM to 0.0064 µM) of each compound. The reading of sulphorodamine B (SRB) staining is known to accurately reflect the level of total cellular macromolecules/cell growth/proliferation[6],[23]. […] The data for CQ and cisplatin were included as references. […] The differences in the GI50 values may be attributable to such factors as the nature of the sulfonyl group and the halogen substitution on the 7th position of the 4-piperazinylquinoline ring system, and the genetic and biochemical background of the cell lines.
(§2) Antiproliferative/antigrowth effects were determined by a SRB-based protocol[6],[23]. For a typical screening experiment, 5,000–10,000 cells were inoculated into 100 µL medium per well of a 96-well microtiter plate as described previously. Briefly, after the inoculation, the microtiter plate was incubated at 37 °C, 5% CO2, 95% air and 100% relative humidity for 24 h, prior to addition of experimental drugs. Some of the sample wells were fixed with 25 µL of 50% tricholoroacetic acid (TCA) as a control of the cell population for each cell line at the time of drug addition (Tz). An aliquot of the frozen stock was thawed and diluted to a desired final maximum test-concentration with complete medium. Two to ten-fold serial dilutions were made to provide a total of seven drug concentrations (and a control [C]). Following addition of drugs, the culture plate was incubated for additional 48 h. Cells were fixed in situ by slowly adding 25 µL of ice-cold 50% (w/v) TCA (final concentration, 10% TCA), and were then incubated for 60 min at 4 °C. The supernatant was discarded, and the plate was washed five times with tap water, followed by air-dry. 50 µL of SRB solution at 0.4% (w/v) in 1% acetic acid was added to each well, and the plate was incubated for >30 min at room temperature. Unbound SRB was removed by five washes with tap water, followed by air-drying. The cells “stained” with SRB were solubilized with 10 mM trizma base, and the absorbance was read on an automated plate reader at a wavelength of 515–564 nm. The relative growth rate (%) was calculated for each of the compound concentrations according to the following formula: (Ti−Tz)/(C−Tz)×100
(§3) In the formula, time zero (Tz), control growth (C), and OD for different concentration of tested compounds (Ti). The GI50 for each compound was obtained from a non-linear Sigmoidal dose-response (variable slope) curve which is fitted by GraphPad Prism v.4.03 software. Values were calculated for each of these parameters if the level of activity was reached. However, if the effect was not reached or was exceeded, the value for that parameter was expressed as greater or less than the maximum or minimum concentration tested.

[2] = system: MDA-MB231; test: SRB antiproliferative/antigrowth assay; format: cell-based, human; details: SRB, 48 h post-treatment, mean of triplicates of at least two experiments, read-out: GI50 MB231
Procedure: as §1, §2, §3

[3] = system: MDA-MB468; test: SRB antiproliferative/antigrowth assay; format: cell-based, human; details: SRB, 48 h post-treatment, mean of triplicates of at least two experiments, read-out: GI50 MB468
Procedure: as §1, §2, §3

[4] = system: 184B5; test: SRB antiproliferative/antigrowth assay, non-cancer cells; format: cell-based, human; details: SRB, 48 h post-treatment, non-cancer breast epithelial cells, read-out: GI50 184B5
Procedure: as §1, §2, §3

[5] = system: MCF10A; test: as above; format: cell-based, human; details: SRB, 48 h post-treatment, non-cancer breast epithelial cells, read-out: GI50 MCF10A
Procedure: as §1, §2, §3

| Molecule | GI50 [1] [µM] | GI50 [2] [µM] | GI50 [3] [µM] | GI50 [4] [µM] | GI50 [5] [µM] | GI50 ([1]; Homo sapiens, MCF7, 48 h) [µM] | GI50 ([2]; Homo sapiens, MDA-MB-231, 48 h) [µM] | GI50 ([3]; Homo sapiens, MDA-MB-468, 48 h) [µM] | GI50 ([4]; Homo sapiens, 184B5, 48 h) [µM] | GI50 ([5]; Homo sapiens, MCF-10A, 48 h) [µM] | increase in antigrowth activity on MCF7 in comparison to methyl substituted compound 7 [1] [fold] | melting point [°C] |
| --- | --- | --- | --- | --- | --- | --- | --- | --- | --- | --- | --- | --- |
| 7-Chloro-4-(4-(biphenylsulfonyl)piperazin-1-yl)quinoline [Compound 9] | 9.2 ± 0.2 | 26.2 ± 0.6 | 18.2 ± 0.5 | 16.4 ± 0.2 | 12.4 ± 0.2 |  |  |  |  |  |  |  |
| CS(=O)(=O)N1CCN(c2ccnc3cc(Cl)ccc23)CC1 [Compound 7, 7-Chloro-4-(4-(methylsulfonyl)piperazin-1-yl)quinoline] |  |  |  |  |  | 22.9 ± 0.6 | 42.7 ± 0.8 | 35.1 ± 0.8 | 11.5 ± 0.2 | 15.3 ± 0.1 |  |  |
| O=S(=O)(c1ccc(Cl)cc1)N1CCN(c2ccnc3cc(Cl)ccc23)CC1 [Compound 10, 7-Chloro-4-(4-(4-chlorophenylsulfonyl)piperazin-1-yl)quinoline] |  |  |  |  |  | 7.6 ± 0.1 | 25.5 ± 0.7 | 16 ± 0.6 | 12.1 ± 0.2 | 8.7 ± 0.1 | 3 |  |
| O=S(=O)(c1ccc(Cl)cc1Cl)N1CCN(c2ccnc3cc(Cl)ccc23)CC1 [Compound 11, 7-Chloro-4-(4-(2,4-dichlorophenylsulfonyl)piperazin-1-yl)quinoline] |  |  |  |  |  | 13.5 ± 0.2 | 40.6 ± 0.8 | 21.6 ± 0.6 | 12.4 ± 0.1 | 8.9 ± 0.2 |  | 145 to 147 |
| O=[N+]([O-])c1cccc(S(=O)(=O)N2CCN(c3ccnc4cc(Cl)ccc34)CC2)c1 [Compound 12, 7-Chloro-4-(4-(3-nitrophenylsulfonyl)piperazin-1-yl)quinoline] |  |  |  |  |  | 14.8 ± 0.2 | 34.7 ± 0.7 | 25.1 ± 0.7 | 13.3 ± 0.2 | 15.5 ± 0.2 |  | 138 to 140 |
| COC(=O)c1sccc1S(=O)(=O)N1CCN(c2ccnc3cc(Cl)ccc23)CC1 [Compound 15, Methyl 3-(4-(7-chloroquinolin-4-yl)piperazin-1-ylsulfonyl)thiophene-2-carboxylate] |  |  |  |  |  | 22.4 ± 0.2 | 40.4 ± 0.8 | 30.2 ± 0.7 | 15.2 ± 0.2 | 14.6 ± 0.1 |  | 117 to 119 |
| Cc1ccc(S(=O)(=O)N2CCN(c3ccnc4cc(C(F)(F)F)ccc34)CC2)cc1 [Compound 17, 4-[4-(Toluene-4-sulfonyl)-piperazin-1-yl]-7-trifluoromethyl-quinoline] |  |  |  |  |  | 20.8 ± 0.2 | 42.7 ± 0.8 | 36.5 ± 0.8 | 12.9 ± 0.1 | 10.5 ± 0.1 |  | 126 to 128 |
| O=S(=O)(c1ccc(-c2ccccc2)cc1)N1CCN(c2ccnc3cc(C(F)(F)F)ccc23)CC1 [Compound 18, 4-[4-(Biphenyl-4-sulfonyl)-piperazin-1-yl]-7-trifluoromethyl-quinoline] |  |  |  |  |  | 14.8 ± 0.2 | 27.2 ± 0.6 | 20.5 ± 0.5 | 19.1 ± 0.2 | 15.5 ± 0.4 |  | 148 to 150 |
| O=S(=O)(c1ccc(Cl)cc1)N1CCN(c2ccnc3cc(C(F)(F)F)ccc23)CC1 [Compound 19, 4-[4-(4-Chloro-benzenesulfonyl)-piperazin-1-yl]-7-trifluoromethyl-quinoline] |  |  |  |  |  | 27.4 ± 0.3 | 41.4 ± 0.8 | 34.9 ± 0.8 | 21.8 ± 0.3 | 13.6 ± 0.2 |  | 144 to 146 |
